# Several values for one entry are separate records, joined by “and”; a condition that tells them apart may be missing. Identical values can stand only once.
# How the values were obtained:
# PRP of treated rats = test: Ex vivo ADP (5 μM)-induced platelet aggregation after oral dosing; assay type: in vivo, rat; conditions: for Aggregation (%): ex vivo, Figure 8A; for ADP-induced platelet aggregation ex vivo: rats, ADP 5 μM, mean ± SD, n = 6, vehicle 63.2 ± 3.6
# Method: Male SD rats were randomly divided into 5 groups with 6 rats in each group. […] Sixty minutes after the last sample treatment, blood was drawn from the abdominal aorta of rats into the siliconized vacutainers containing 1:9 (v/v) 3.8% sodium citrate. The collected blood was centrifuged at 100 × g for 10 min at room temperature to obtain PRP. […] The platelet counts of PRP were adjusted to 4×10^8 cells/mL using PPP. PRP was incubated for 5 min at 37°C and then stimulated by ADP (5 μM). The maximum platelet aggregation rate was determined as mentioned above.
# [1] = tested on: intracellular calcium in washed platelets; test: Calcium mobilization in ADP-induced platelets (Fluo 3-AM, flow cytometry); assay type: cell-based, rat; conditions: for Calcium mobilisation (%): ADP 10 μM, single replicates
# Method: Calcium mobilization in ADP-induced platelets was measured using flow cytometry. Washed platelets were incubated with Fluo 3-AM (5 μM) at 37°C for 30 min and washed. The Fluo 3-loaded platelets were preincubated with vehicle or different concentrations of naringenin at 37°C for 5 min in the presence of 1 mM CaCl2 and then stimulated with ADP (10 μM) for 5 min. The fluorescence intensity was analyzed using an Accuri C6 flow cytometer.
# [2] = tested on: carotid arterial thrombus; test: FeCl3-induced carotid arterial thrombus model in rats; assay type: in vivo, rat; conditions: for Occlusion time: 10% FeCl3, single animals, no occlusion within 20 min recorded as 20 min
# Method: To determine the effects of naringenin on thrombogenesis, a FeCl3-induced carotid arterial thrombus model was performed as reported previously with some modifications ([Eckly et al., 2011]). […] The rats were anaesthetized using 1% pentobarbital sodium salt and fixed supinely after the last administration. The left carotid artery was exposed and thrombosis was induced by applying a Whatman filter paper (5 mm × 1 mm) saturated with 10% (w/v) FeCl3 on the top of the left carotid artery for 5 min. […] Time to occlusion of the carotid artery was defined as a blood flow of 0 ml/min for 3 min. […] At the end of the experiment, the left carotid artery was dissected. A haematoxylin and eosin stain was performed on the artery.
# [3] = tested on: VASP Ser157 phosphorylation; test: Immunoblotting of phospho-VASP (Ser157) in ADP-stimulated washed platelets; assay type: cell-based, rat; conditions: for p-VASP(Ser157) / GAPDH (Fold to ADP only) / p-VASP(Ser157) / GAPDH (raw data): ADP-stimulated, Figure 7B
# Method: For in vitro platelet aggregation, aliquots of washed platelets were preincubated with vehicle or various concentrations of naringenin for 5 min and stimulated with ADP (10 μmol/L) under stirring at 37°C for 5 min. For ex vivo platelet aggregation, PRP was incubated at 37°C for 5 min and stimulated with ADP (5 μmol/L) under stirring at 37 °C. The platelet aggregation was terminated by adding ethylenediaminetetraacetic acid (EDTA; 10 mM). Total protein was prepared using RIPA lysis buffer and protein content was determined by bicinchoninic acid (BCA) protein assay kit. Equal amounts of platelet proteins (30 μg) were separated on 10% SDS polyacrylamide gel electrophoresis (SDS-PAGE) and then transferred to poly vinylidene difluoride (PVDF) membranes and subjected to western blot. Blots were blocked with TBS-Tween 20 containing 5% BSA and probed with primary antibodies diluted in blocking solution at 4°C overnight followed by incubation with the corresponding HRP secondary antibodies. The protein bands were visualized using enhanced chemiluminescence (ECL).
# VASP is a substrate for cAMP- and cGMP- dependent protein kinases, which mediate cAMP- and cGMP-dependent inhibitory signaling in platelets, respectively. Increased cAMP levels followed by the activation of cAMP-dependent protein kinase A (PKA) phosphorylates VASP at position Ser157, whereas the elevation of cGMP leads to VASP phosphorylation at position Ser239 by cGMP-dependent protein kinase G (PKG) ([Aszódi et al., 1999]; [Li et al., 2003a]). To further examine whether naringenin modulates cAMP- or cGMP-mediated inhibitory signaling, the phosphorylation of VASP (Ser157 and Ser239) in washed platelets on stimulation with ADP were measured in the absence or presence of naringenin (100, 200, 400, and 800 μM). […] To further confirm the antiplatelet effects of naringenin through PKA-dependent signaling, the effects of naringenin on platelet aggregation were measured in the presence of PKG inhibitor (Rp-8-Br-PET-cGMPS) and PKA inhibitor (H89).
# FIGURE 7 Naringenin promotes VASP phosphorylation. The effects of naringenin on phosphorylation of VASP (at positions Ser 157 and Ser239) were measured in washed platelets upon stimulation with ADP (10 μmol/L) by western blotting (A). The blots shown are representative of three separate experiments. The phosphorylation levels were quantified by ImageJ 1.47v software. The level of phosphorylation obtained with vehicle control (0 μM) was taken as 1 (B,C). R represents the phosphorylation level in resting platelets. Data are expressed as means ± SD (n = 3). *p < 0.05, ***p < 0.001 compared with the vehicle control group. VASP phosphorylation at Ser239 was also analyzed in washed platelets incubated with 5 μmol/L PKA (H89), 30 μmol/L PKG (Rp-8-Br-PET-cGMPS), or 5 μmol/L PKC (GF109203X) inhibitors before treatment with naringenin (D). Washed platelets were incubated with vehicle or naringenin (200 μmol/L) at 37°C in the presence or absence of 5 μmol/L PKA (H89) or 30 μmol/L PKG (Rp-8-Br-PET-cGMPS) inhibitors. After treatment, platelets were stimulated with ADP (10 μmol/L) to trigger aggregation (E). Data are expressed as means ± SD (n = 6). ***p < 0.001 compared with the ADP-treated group, ^# p < 0.05, ^### p < 0.001 compared with naringenin alone or H89 alone.
# PRP = test: Clot retraction; assay type: cell-based, rat; conditions: PRP, 200, 400, and 800 μM, thrombin 1 U/mL, 15 min
# Method: PRP was incubated with vehicle or different concentrations of naringenin for 10 min at 37°C. Clot retraction was initiated by adding fibrinogen (400 μg/ml) and thrombin (1 U/mL), and allowed to proceed at 37°C. Images were taken 15 min later.
smiles,measurement,setting,value
O=C1C[C@@H](c2ccc(O)cc2)Oc2cc(O)cc(O)c21 [Naringenin],Aggregation (%),PRP of treated rats; naringenin 200mg/kg,44.3% and 43.6% and 49.2% and 46.7% and 39.1% and 43%
same,Aggregation (%),PRP of treated rats; naringenin 400mg/kg,34.4% and 37.3% and 35.4% and 28% and 25.8% and 22.9%
same,Aggregation (%),PRP of treated rats; naringenin 800mg/kg,12.7% and 17.8% and 16.5% and 21.5% and 19.3% and 11.6%
same,ADP-induced platelet aggregation ex vivo,PRP of treated rats; oral 200 mg/kg once a day for 7 days,44.3 ± 3.4%
same,ADP-induced platelet aggregation ex vivo,PRP of treated rats; oral 400 mg/kg once a day for 7 days,30.6 ± 5.9%
same,ADP-induced platelet aggregation ex vivo,PRP of treated rats; oral 800 mg/kg once a day for 7 days,16.6 ± 3.8%
same,mobilization of intracellular calcium induced by ADP,[1]; 400 and 800 μM,significantly prevented
same,Calcium mobilisation (%),[1]; 200 μM,46.06% and 50.52% and 43.09%
same,Calcium mobilisation (%),[1]; 400 μM,35.32% and 30.53% and 43.33%
same,Calcium mobilisation (%),[1]; 800 μM,34.54% and 21.04% and 26.06%
same,H&E-stained carotid artery: thrombus formation and vascular endothelial injury,"[2]; naringenin pretreatment, 10% FeCl3",diminish thrombus formation and protect against vascular endothelial injury
same,Occlusion time,"[2]; oral 200 mg/kg for 7 days, 200 mg/kg",7.5 min and 11.3 min and 8.5 min and 8.0 min and 9.5 min and 10.3 min
same,Occlusion time,"[2]; oral 400 mg/kg for 7 days, 400 mg/kg",11.0 min and 10.5 min and 13.0 min and 14.0 min and 15.0 min
same,10% FeCl3-thrombus formation (time to vessel occlusion),[2]; oral 800 mg/kg for 7 days,markedly attenuated
same,Occlusion time,"[2]; oral 800 mg/kg for 7 days, 800 mg/kg",13.3 min and 15.3 min and 20.0 min and 18.0 min
same,10% FeCl3-thrombus formation (time to vessel occlusion),[2]; oral 200 and 400 mg/kg for 7 days,less inhibition
same,phosphorylation of VASP at Ser157,"[3]; ADP-stimulated washed platelets, 100, 200, 400, and 800 μM",did not significantly alter
same,p-VASP(Ser157) / GAPDH (Fold to ADP only),[3]; naringenin 200 μM,1.6152 and 1.1716 and 1.5055
same,p-VASP(Ser157) / GAPDH (raw data),[3]; naringenin 200 μM,0.7758 and 0.5628 and 0.7232
same,p-VASP(Ser157) / GAPDH (Fold to ADP only),[3]; naringenin 400 μM,1.6752 and 1.3720 and 1.0597
same,p-VASP(Ser157) / GAPDH (raw data),[3]; naringenin 400 μM,0.8047 and 0.6590 and 0.5090
same,p-VASP(Ser157) / GAPDH (Fold to ADP only),[3]; naringenin 800 μM,1.6695 and 1.5145 and 1.3641
same,p-VASP(Ser157) / GAPDH (raw data),[3]; naringenin 800 μM,0.8019 and 0.7275 and 0.6552
same,clot retraction,PRP,significantly reduced
